Residues, ends and D or L forms follow the SMILES beside them.
Legend:
Format in all cases: cell-based
in vitro = conditions: human, NHK cells (normal human keratinocytes)
Description: To determine the cytotoxicity of the peptide produced by the method of Example 1 in normal cell line, toxicity was measured by using NHK cells (Normal Human Keratinocyte cells).
Specifically, NHK cells which have been cultured in Epilife medium with 60 μM calcium (Gibco, USA) containing 10% HKGS (Human Keratinocyte Growth Supplement) (Gibco, USA) were aliquoted in a 96-well plate to have 1×10^4 cells per well. After culturing them for 24 hours, the cells were subjected to a treatment with myxinidin, myxinidin 1, myxinidin 2, or myxinidin 3 peptide, each at concentration of 3.125, 6.25, 12.5, or 25.0 μM/well, followed by reaction for 24 hours in a 5% CO2 incubator. After the culture, a reaction solution containing 5 mg/ml MTT (Thiazolyl Blue Tetrazolium Bromide) dissolved in physiological saline (PBS) was added in an amount of 20 μl to each well and allowed to react for 4 hours. After that, the supernatant was removed, and, by dissolving MTT crystals that are formed by adding 200 μl of DMSO, the absorbance at 560 nm was measured to determine the cell survival ability.

[1] = system: Escherichia coli CCARM 1238
Description: (§1) To compare the antimicrobial activity of the peptide produced by the method of Example 1, the inventors of the present invention measured the growth minimum inhibitory concentration (MIC), which is minimum concentration of the peptide showing no dissociation of bacterial cells.
(§2) Specifically, the bacterial strain described in the following Table 2 was purchased and cultured in each medium to a mid-log phase. Then, after dilution to bacterial cell concentration of 2×10^5 cells/100 μl, the cells were inoculated to a microtiter plate (NUNC, USA). Thereafter, myxinidin 1, myxinidin 2, or myxinidin 3 peptides which have been synthesized in Example 1 above was diluted, 1/2 times for each, with BSA (bovine serum albumin) solution in a 96-well plate. After adding the cells to a plate, the cells were cultured for 12 hours at 37° C. By using a microtiter plate reader (Merck Elisa reader, Germany), the absorbance was measured at a wavelength of 600 nm to determine the MIC value of each bacterial strain. As a control group, myxinidin as a mother peptide was subjected to the same processes as above and the MIC value of each bacterial strain was obtained.

[2] = system: Staphylococcus aureus CCARM 3114
Description: as §1, §2

[3] = system: Escherichia coli ATCC 25922
Description: as §1, §2

[4] = system: Pseudomonas aeruginosa Isolated strain 3592
Description: as §1, §2

[5] = system: Listeria monocytogenes KCTC 3710
Description: as §1, §2

[6] = system: Salmonella typhimurium CCARM 8009
Description: as §1, §2

[7] = system: Staphylococcus aureus CCARM 3709
Description: as §1, §2

[8] = system: Staphylococcus aureus ATCC 25923
Description: as §1, §2

[9] = system: Salmonella typhimurium CCARM 8013
Description: as §1, §2

[10] = system: Escherichia coli CCARM 1229
Description: as §1, §2

[11] = system: Salmonella typhimurium KCTC 1926
Description: as §1, §2

[12] = system: Pseudomonas aeruginosa ATCC 27853
Description: as §1, §2

[13] = system: Pseudomonas aeruginosa Isolated strain 5018
Description: as §1, §2

## CC[C@H](C)[C@H](NC(=O)CN)C(=O)N[C@@H](Cc1c[nH]cn1)C(=O)N[C@@H](CC(=O)O)C(=O)N[C@H](C(=O)N[C@@H](CC(C)C)C(=O)N[C@@H](CCCCN)C(=O)N[C@@H](Cc1ccc(O)cc1)C(=O)NCC(=O)N[C@@H](CCCCN)C(=O)N1CCC[C@H]1C(=O)N[C@@H](CO)C(N)=O)[C@@H](C)CC [Myxinidin, GIHDILKYGKPS-NH2] (H-GIHDILKYGKPS-NH2)
In vitro
  viability at 24 h, 3.125 µM: 100%
  viability at 24 h, 6.25 µM: 98%
  viability at 24 h, 12.5 µM: 98%
  viability at 24 h, 25 µM: 95%
[1]
  Minimum growth inhibitory concentration: >32 µM
[2]
  Minimum growth inhibitory concentration: >32 µM
[3]
  Minimum growth inhibitory concentration: >32 µM
[4]
  Minimum growth inhibitory concentration: >32 µM
[5]
  Minimum growth inhibitory concentration: >32 µM
[6]
  Minimum growth inhibitory concentration: >32 µM
[7]
  Minimum growth inhibitory concentration: >32 µM
[8]
  Minimum growth inhibitory concentration: >32 µM
[9]
  Minimum growth inhibitory concentration: >32 µM
[10]
  Minimum growth inhibitory concentration: >32 µM
[11]
  Minimum growth inhibitory concentration: >32 µM
[12]
  Minimum growth inhibitory concentration: >32 µM
[13]
  Minimum growth inhibitory concentration: >32 µM
